According to PubChem BioAssay (NCI):
“And” between values parts separate entries of the source, which are not always exact repeats. Identical values can stand only once.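 How tested: cells in 96-well plates exposed to compound for 48 hours at five concentrations. GI50 = concentration required for 50% inhibition of growth. TGI: concentration producing complete growth inhibition.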

Tests used:
Experiment in all cases: NCI tumour cell line growth inhibition, 48 h
[1] = test system: SR leukemia
[2] = test system: TK-10 renal
[3] = test system: IGROV1 ovarian
[4] = test system: ACHN renal
[5] = test system: SK-OV-3 ovarian
[6] = test system: 786-0 renal
[7] = test system: CAKI-1 renal
[8] = test system: SK-MEL-2 melanoma
[9] = test system: HOP-92 NSCLC
[10] = test system: A498 renal

Row | SMILES | TGI [1] [µM] | TGI [2] [µM] | TGI [3] | TGI [4] [µM] | TGI [5] [µM] | TGI [6] [µM] | TGI [7] [µM] | TGI [8] [µM] | TGI [9] [µM] | GI50 [8] [nM] | GI50 [10] [nM] | TGI [10] [µM] | GI50 [2] [µM] | GI50 [4] [µM] | GI50 [5] [µM] | GI50 [9] [nM] | GI50 [6] [nM] | GI50 [7] | GI50 [1] [µM] | GI50 [3] [µM]
1 | C=C[C@@]1(C)CCC2(O)C(CCC3C2(C)CCC[C@@]3(C)COC(=O)CC(=O)OC)C1 (some centres undefined) | 43.9 | 73.3 | 71.7 µM | > 100 | > 100 | > 100 | > 100 |  |  |  |  |  |  |  |  |  |  |  |  | 
2 | COC(=O)[C@H]1[C@H]2C[C@@H]3c4[nH]c5cc(OC)ccc5c4CCN3C[C@H]2C[C@@H](OC(=O)c2cc(OC)c(OC)c(OC)c2)[C@@H]1OC | 34 | 38 | 47.1 µM | > 100 |  | 27.7 | 36 | 38.1 | 39.9 |  |  |  |  |  |  |  |  |  |  | 
3 | COc1ccc(C(C#N)NC23CC4CC(CC(C4)C2)C3)cc1OC (centres undefined) | > 100 | > 100 | > 100 µM | > 100 | > 100 | > 100 | > 100 | > 100 | > 100 |  |  |  |  |  |  |  |  |  |  | 
4 | O=C(/C=C1\C(=O)N(Cc2ccc([N+](=O)[O-])cc2)c2ccccc21)c1ccc(OCCN2CCCCC2)cc1 |  | 2.74 |  | 2.38 | 11.7 | 2.61 | 2.26 | 3.14 | 2.37 | 1660 | 4090 | 18 | 1.43 | 1.16 | 2.78 | 1070 | 1290 | 1070 nM |  | 
5 | O=C(CC(=O)C(=O)Nc1ccccc1)CC(c1ccccc1)c1c(O)c2ccccc2oc1=O (centres undefined) |  | > 100 | > 100 µM | > 100 | > 100 | > 100 | > 100 | > 100 | > 100 |  |  | > 100 |  |  |  |  |  |  |  | 
6 | CCCCSN1C(=O)c2ccccc2C1=S |  | > 100 | > 100 µM | > 100 | > 100 | > 100 | > 100 | > 100 | > 100 |  |  | > 100 |  |  |  |  |  |  |  | 
7 | Cc1ccc(C2CC(c3ccc([N+](=O)[O-])cc3)=Nc3ccccc3S2)cc1 (centres undefined) |  | > 100 | 87.5 µM | > 100 | > 100 | 28 | > 100 | 95 |  |  |  | 77.1 |  |  |  |  |  |  |  | 
8 | O=C(Cn1c(=O)c(-c2ccccc2)nc2ccccc21)c1ccc(Cl)cc1 | > 100 | > 100 | > 100 µM | > 100 | > 100 | 86.6 | > 100 | > 100 | 65 | > 100000 |  |  | 25.7 | 38.6 | 46.4 | 27200 | 27000 | 67500 nM | 37.1 | 63.3
9 | COc1cc2c(c(OC)c1OC)C(=O)CC(c1cccc(NC(=O)c3ccc(Br)cc3)c1)O2 (centres undefined) |  | > 100 | > 100 µM | > 100 | > 100 | > 100 | > 100 | 5.38 |  | 2160 | 1550 | 8.15 | 4.44 | 3.02 | 4.32 |  | 2970 | 2250 nM |  | 3.05
10 | COc1cc([N+](=O)[O-])c(S(=O)(=O)O)cc1NS(=O)(=O)c1ccc(C)cc1 | > 100 | > 100 | > 100 µM | > 100 | > 100 | > 100 | > 100 | > 100 |  |  |  | > 100 |  |  |  |  |  |  |  | 
11 | N=CCCN(CCC=N)c1ccc(/C=C2\CN(NC(=O)c3ccc(Cl)cc3)C(c3ccccc3)=N2)cc1 |  | > 100 | > 100 µM | > 100 | > 100 | > 100 | > 100 | > 100 | > 100 |  |  | > 100 |  |  |  |  |  |  |  | 
12 | O=C(CC(=O)c1ccc([N+](=O)[O-])cc1)C(=O)Nc1nccs1 | > 100 | > 100 | > 100 µM | > 100 | > 100 | > 100 | > 100 | > 100 | > 100 |  |  |  |  |  |  |  |  |  |  | 
13 | Nc1ncnc2c1ncn2C1OC(CSC(F)(F)F)C(O)C1O (centres undefined) |  | > 100 | > 100 µM | > 100 | > 100 | > 100 | > 100 | > 100 | > 100 |  |  | > 100 |  |  |  |  |  |  |  | 
14 | C/C=C(\C)c1cc(=O)c2c(C)cc3c(c2o1)C(=O)c1c(O)c(C2CC(C)(N(C)C)C(O)C(C)O2)cc(C2CC(N(C)C)C(O)C(C)O2)c1C3=O (centres undefined) | 12 | 0.729 | 3.2 µM and > 27.6 µM | 0.504 |  | 0.946 | 5.99 | 12.2 |  | 3670 |  | 0.453 |  |  |  |  |  | 273 nM and 2080 nM |  | 
15 | CCCCN(CCCC)c1ccc(C(=N)c2ccc(N(C)C)cc2)cc1 |  | 1.84 | 2.44 µM | 2.38 | 2.66 | 2.55 | 1.49 | 2.24 | 1.78 | 829 | 178 | 1.8 | 0.643 | 1.04 | 1.36 | 362 | 1100 | 356 nM |  | 0.906
16 | CC1(C)CCC[C@@]2(C)C1C[C@H](O)[C@@]1(C)O[C@@](C)([C@H](O)CO)CCC21 (some centres undefined) |  | > 100 | 70.6 µM | 74.9 | 79.4 | > 100 | > 100 | 60 | 70.7 |  |  | 77.1 |  |  |  |  |  |  |  | 
17 | NC(=O)c1cc(-c2ccncc2)cc(-c2ccccc2)c1N | > 25 | > 25 | > 25 µM | > 25 | > 25 | > 25 | > 25 | > 17 |  | > 5200 | 4640 | 21.9 | 6.43 | 7.4 | 11.5 |  | 15900 | 8340 nM | 13.5 | 9.48
18 | O=C(O)C1CCc2nnc(-c3ccccc3)n21 (centres undefined) | > 100 | > 100 | > 100 µM | > 100 | > 100 | > 100 | > 100 | > 100 |  |  |  | > 100 |  |  |  |  |  |  |  | 
19 | COc1ccc(C2=Nc3ccccc3SC(C)C2)cc1 (centres undefined) |  | > 100 | > 100 µM | > 100 | > 100 | > 100 | > 100 | > 100 | > 100 |  |  | > 100 |  |  |  |  |  |  |  | 
